Laboratory results as given in paper PMC6936879, “Inhibiting the copper efflux system in microbes as a novel approach for developing antibiotics” (PLoS ONE, 2019).

What was measured:
E. coli (BL21) = assay: Kirby-Bauer test (disc diffusion); assay type: cell-based; conditions: 2 mm radius discs, LB petri dishes, 37 °C overnight
CusB = biological target: T1, CusB (Escherichia coli, UniProt P77239, A236C/A248C); assay: DEER distance distribution measurements on spin-labeled CusB; parameters: species or system E. coli; conditions: CusB spin labeled (MTSSL) at A236C and A248C; Cu(I):CusB 3:1; Q-band DEER at 50 K; apo-CusB 2.5 ± 0.5 nm, holo-CusB 2.8 ± 0.3 nm
T1 construct: intein (cleaved yes); made in house; host or cells: E. coli BL21 (DE3)
Procedure: Before labeling, 10 mM DTT was added to the protein solution and mixed overnight at 4°C. DTT was dialyzed out using a Microsep Advanced Centrifugal Device (Pall, Port Washington, NY, USA) applied to samples of up to 5 mL in lysis buffer, with a 3-kDa molecular weight cutoff. Next, 0.25 mg of S-(2,2,5,5-tetramethyl-2,5-dihydro-1H-pyrrol-3-yl)methyl methanesulfonothioate (MTSSL, TRC) was dissolved in 15 μL Dimethyl sulfoxide (DMSO) and added to 0.75 ml of 0.01 mM protein solution (20-fold molar excess of MTSSL). The protein solution was then vortexed overnight at 4°C. The free spin label and Cu(I) ions were removed by several dialysis cycles over 4 days. […] The concentration was determined with a Lowry assay. […]
A constant-time four-pulse double electron-electron resonance (DEER) experiment with pulse sequence π/2(νobs)-τ1-π(νobs)-t′−π(νpump)-(τ1 + τ2 − t′)-π(νobs)-τ2(νobs)-τ2-echo was performed at (50 ± 0.5 K) on a Q-band Elexsys E580 equipped with a 2-mm probe head; bandwidth, 220 MHz. […] The echo was measured as a function of t′, and τ2 was kept constant to eliminate relaxation effects. […] The samples were measured in 1.6-mm quartz capillary tubes (Wilmad-Labglass, Vineland, NJ, USA). The data were analyzed with the DeerAnalysis 2016 program and with Tikhonov regularization. […]

E. coli (BL21;DE3) = assay: E. coli viability assay (LIVE/DEAD fluorescence imaging); assay type: cell-based; conditions: peptide 125 μM; LIVE/DEAD staining, M9 medium, confocal imaging, cell counts with ImageJ; mean ± SE, n = 3
Procedure: E. coli (BL21;DE3) were dyed using the L7007 LIVE/DEAD Bacterial Viability kit (Molecular Probes, Eugene OR, USA); microbes were grown in M9 medium. Images were acquired on a Leica SP8 confocal microscope, running LASX acquisition software. The magnification consisted of a 63 X 1.4 NA objective. Microbes were counted using ImageJ software. Error calculations were based on three repetitions, with each experiment scanned at nine different tiles—all together, 27 repetitions.
Live/dead fluorescence cell imaging experiments were used to indicate bacterial viability when incubated with the peptides. This method also helped to determine whether the decrease in the growth rate described above resulted from deceleration in E. coli growth or its substantial death. E coli were grown to the late […] phase (according to the growth rate lines; Figs B to D in S1 File) in the presence of the peptides in poor medium (M9), which mostly resembles physiological conditions.[52–54] Glucose levels in the growth media were sufficient to prevent bacterial viability loss due to lack of nutrition, yet not too high to positively affect its viability. […] However, the effect of the peptides was not as substantial as the commercially available antibiotic kanamycin. […] 5 ± 4.3% and up to 45.3 ± 4.3% reduction at a concentration of 125 μM.
Fig 4 Effect of the test peptides on E. coli viability. […]

Question: AKIQG [pep8] was tested. Which “r, radius of bacteria killing formed over petri dishes by peptide-solution discs” value (E. coli (BL21); disc solution 50 µM in 0.85% NaCl) did it give?
Answer: The value was 0 mm.

Question: And the “r, radius of bacteria killing formed over petri dishes by peptide-solution discs” value (E. coli (BL21); disc solution 75 µM in 0.85% NaCl)?
Answer: Its value is 0.5 mm.

Question: What about the “r, radius of bacteria killing formed over petri dishes by peptide-solution discs” value (E. coli (BL21); disc solution 100 µM in 0.85% NaCl) of the same substance?
Answer: Its value is 0.5 mm.

Question: And the “r, radius of bacteria killing formed over petri dishes by peptide-solution discs” value (E. coli (BL21); disc solution 125 µM in 0.85% NaCl)?
Answer: Its value is 1 mm.

Question: What about the “DEER distance distribution of CusB bound to peptide and incubated with Cu(I)” value (CusB) of the same substance?
Answer: The value was “around 3.2 nm”.

Question: What about the “reduction of bacterial viability” value (E. coli (BL21;DE3)) of the same substance?
Answer: The value was 41 ±5.15%.
